Results as given in paper PMC3184254 (Nature Chemical Biology, 2011).
Read-outs that look alike come from different tables or passages of the source.

Assays:
[1] = test system: H3K9me2 levels in J1 mES cells; test: Cellular potency; assay type: cell-based; details: Mus musculus, 48 h, read-out: IC50 cellular potency
[2] = test system: 26 out of 29 targets in the Ricerca Selectivity Panel; test: Ricerca Selectivity Panel; assay type: binding; details: at 1 μM
PRMT1 = PRMT1 (Homo sapiens, UniProt Q99873); test: BPS Bioscience assay, PRMT1; assay type: biochemical
M1, M2 and M4 = M1, M2 and M4 functional assays; assay type: cell-based
[3] = test system: DNA methylation on chr3 and chrX in MCF7 cells; test: DNA methylation microarray analysis, MCF7; assay type: cell-based, human; details: 14 d at 70 or 320 nM
MDA-MB-231 cells = test: MTT assay, MDA-MB-231; assay type: cell-based, human; details: Homo sapiens, MDA-MB-231, read-out: EC50 cellular toxicity (MTT)
[4] = test system: H3K9me2 levels in PC3 cells; test: H3K9me2 in-cell western, PC3; assay type: cell-based; details: Homo sapiens, PC-3, read-out: IC50 for reduction of H3K9me2 levels
[5] = test system: MAGEA2 and DUB1 genes in J1 mES cells; test: mRNA levels of G9a-regulated endogenous genes; assay type: cell-based, mouse; details: day 10; versus untreated or UNC0737-treated cells
SUV39H1 = SUV39H1 (Homo sapiens, UniProt O43463); test: BPS Bioscience assay, SUV39H1; assay type: biochemical
[6] = assay results from BPS Bioscience

Sequence of PRMT1 (Q99873 whole entry, species assumed): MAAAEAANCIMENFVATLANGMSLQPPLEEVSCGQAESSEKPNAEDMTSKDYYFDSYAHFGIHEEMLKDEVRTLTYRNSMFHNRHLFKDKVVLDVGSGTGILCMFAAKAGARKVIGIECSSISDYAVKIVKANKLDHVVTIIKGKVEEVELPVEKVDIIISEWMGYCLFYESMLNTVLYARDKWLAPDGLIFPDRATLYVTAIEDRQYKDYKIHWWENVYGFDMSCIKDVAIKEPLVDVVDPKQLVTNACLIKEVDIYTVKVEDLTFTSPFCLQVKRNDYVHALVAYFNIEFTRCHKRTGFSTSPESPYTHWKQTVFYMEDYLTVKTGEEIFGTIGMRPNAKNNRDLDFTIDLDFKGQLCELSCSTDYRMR
Sequence of SUV39H1 (O43463 whole entry, species assumed): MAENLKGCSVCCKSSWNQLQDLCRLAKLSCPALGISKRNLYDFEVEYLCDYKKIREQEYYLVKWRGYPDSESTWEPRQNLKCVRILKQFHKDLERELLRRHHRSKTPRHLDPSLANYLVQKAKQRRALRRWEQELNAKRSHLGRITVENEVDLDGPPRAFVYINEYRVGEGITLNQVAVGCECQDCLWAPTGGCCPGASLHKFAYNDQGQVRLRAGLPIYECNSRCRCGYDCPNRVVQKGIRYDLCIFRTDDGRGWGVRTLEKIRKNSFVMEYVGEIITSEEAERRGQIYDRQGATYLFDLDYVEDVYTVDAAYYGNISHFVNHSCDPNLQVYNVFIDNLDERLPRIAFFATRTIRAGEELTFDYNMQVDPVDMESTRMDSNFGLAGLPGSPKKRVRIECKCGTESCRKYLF

In the case of `COc1cc2c(NC3CCN(C(C)C)CC3)nc(C3CCCCC3)nc2cc1OCCCN1CCCC1` [UNC0638], the IC50 [1] is reported as 0.138 µM, the inhibition [2] is reported as less than 30% and the IC50 (PRMT1) is reported as greater than 10 µM. The IC50 (PRMT1; [6]) was “inactive”, the agonist activity (M1, M2 and M4) was “no agonist activity” and the “total levels of DNA methylation on chr3 and chrX” value [3] was “not altered”. The EC50 (MDA-MB-231 cells) was 11 µM, the IC50 [4] was 0.059 µM and the “expression of DUB1 and MAGEA2 genes” value [5] was “more highly expressed”. The IC50 (SUV39H1) was greater than 10 µM and the IC50 (SUV39H1; [6]) was “inactive”.
